Results as given in PMC3989234, “Introduction of Aromatic Ring-Containing Substituents in Cyclic Nucleotides Is Associated with Inhibition of Toxin Uptake by the Hepatocyte Transporters OATP 1B1 and 1B3” (PLoS ONE, 2014).
Read-outs that look alike come from different tables or passages of the source.

Tests used:
OATP1B1 [1] = biological target: T1, OATP1B1 (Homo sapiens, UniProt Q9Y6L6)
T1 sequence (Q9Y6L6 1-691): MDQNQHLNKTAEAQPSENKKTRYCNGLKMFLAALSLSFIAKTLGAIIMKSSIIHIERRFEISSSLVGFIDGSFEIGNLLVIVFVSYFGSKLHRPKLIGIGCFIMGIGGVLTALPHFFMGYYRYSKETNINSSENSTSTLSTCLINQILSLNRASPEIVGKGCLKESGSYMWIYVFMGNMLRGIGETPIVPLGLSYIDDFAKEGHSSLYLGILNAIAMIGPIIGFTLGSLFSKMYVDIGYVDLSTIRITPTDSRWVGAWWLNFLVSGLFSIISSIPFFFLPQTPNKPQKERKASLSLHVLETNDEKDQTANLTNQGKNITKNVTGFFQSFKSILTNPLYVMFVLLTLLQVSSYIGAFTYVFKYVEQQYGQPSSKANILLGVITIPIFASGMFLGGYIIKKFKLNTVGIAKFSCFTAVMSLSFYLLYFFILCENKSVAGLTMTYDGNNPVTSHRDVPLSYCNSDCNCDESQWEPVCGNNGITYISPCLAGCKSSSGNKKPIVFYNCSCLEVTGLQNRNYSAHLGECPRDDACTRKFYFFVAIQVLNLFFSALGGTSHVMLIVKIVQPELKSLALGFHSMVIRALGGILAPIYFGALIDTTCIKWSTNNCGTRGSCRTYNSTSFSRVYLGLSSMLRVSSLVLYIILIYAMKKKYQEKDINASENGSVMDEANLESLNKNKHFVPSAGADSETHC

OATP1B3 [2] = biological target: T2, OATP1B3 (Homo sapiens, UniProt Q9NPD5)
OATP1B3 [3] = biological target: T2, OATP1B3; settings: read-out: Ki for inhibition of sodium fluorescein accumulation, OATP1B3; competitive; inhibitor 10 min before, 3 min co-incubation; ± s.e. of the estimate; R2 0.91
Description: (§1) Estimation of sodium fluorescein accumulation in OATP1B1/1B3 transfected cells was as described by [33], except that the cells were seeded in 24-well tissue culture plates at a density of 200 000 cells/well. Inhibitors were added 10 min prior to addition of sodium fluorescein, and the cells were then co-incubated with inhibitor and substrate for three min before removal of medium and washing.
(§2) The data for uptake of fluorescein into HEK293T cells transfected with OATP1B1 or OATP1B3 in the absence or presence of inhibitor were fitted in SigmaPlot, using Michaelis Menten kinetics with competitive inhibition. Vmax and Km values obtained in absence of inhibitor were used to fit the Ki value for uptake in the presence of inhibitor.

primary rat hepatocytes [4] = tested on: primary rat hepatocytes
primary rat hepatocytes [5] = tested on: primary rat hepatocytes; remark: listed apart in the source
primary rat hepatocytes [6] = settings: 50 µM
OATP1B1 [7] = biological target: T1, OATP1B1; test: Sodium fluorescein accumulation in OATP1B1-transfected HEK293T cells; settings: read-out: Ki for inhibition of sodium fluorescein accumulation, OATP1B1; competitive; inhibitor 10 min before, 3 min co-incubation; ± s.e. of the estimate; R2 0.79
Description: as §1, §2

OATP1B3 [8] = biological target: T2, OATP1B3; test: in vitro
Description: as §1, §2

OATP1B1 [9] = biological target: T1, OATP1B1; settings: cited from earlier work
OATP1B3 [10] = biological target: T2, OATP1B3; settings: cited from earlier work
[11] = substrate: O=C1OC2(c3ccc(O)cc3Oc3cc(O)ccc32)c2ccccc21; test: cells, lysate or membranes; settings: other: ± s.e. of the estimate
Description: as §1, §2

T2 sequence (Q9NPD5 whole entry): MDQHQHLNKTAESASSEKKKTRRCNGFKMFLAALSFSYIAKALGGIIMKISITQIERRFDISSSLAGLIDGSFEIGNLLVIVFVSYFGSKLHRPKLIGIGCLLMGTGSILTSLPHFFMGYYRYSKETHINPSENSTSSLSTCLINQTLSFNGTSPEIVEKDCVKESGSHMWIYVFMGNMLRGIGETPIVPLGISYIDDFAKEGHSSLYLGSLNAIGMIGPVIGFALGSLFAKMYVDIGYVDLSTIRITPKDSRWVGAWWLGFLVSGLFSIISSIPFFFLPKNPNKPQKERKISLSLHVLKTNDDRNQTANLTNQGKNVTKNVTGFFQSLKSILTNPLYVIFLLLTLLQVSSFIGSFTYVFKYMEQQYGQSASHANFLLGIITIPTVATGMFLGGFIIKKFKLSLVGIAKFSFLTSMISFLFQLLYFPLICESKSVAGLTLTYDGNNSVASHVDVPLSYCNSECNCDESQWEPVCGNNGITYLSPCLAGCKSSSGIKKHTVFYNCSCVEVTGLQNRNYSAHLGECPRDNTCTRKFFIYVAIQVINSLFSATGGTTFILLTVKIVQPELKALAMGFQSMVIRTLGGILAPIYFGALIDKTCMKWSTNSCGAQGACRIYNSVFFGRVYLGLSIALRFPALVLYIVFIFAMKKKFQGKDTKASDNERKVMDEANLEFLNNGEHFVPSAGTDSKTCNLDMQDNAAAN

## CO[C@@H]1[C@@H]2OP(=O)(O)OC[C@H]2O[C@H]1n1c(Sc2ccc(Cl)cc2)nc2c(N)ncnc21 [8-pCPT-2′-O-Me-cAMP, 8-(4-Chlorophenylthio)-2′-O-methyladenosine-3′, 5′-cyclic monophosphate]
OATP1B1 [1]
  Effect on Nod-induced apoptosis / Nod transport, OATP1B1-transfected HEK293T cells: abolished
  IC50: 46.4 µM
  Ki: 15.5 µM
OATP1B3 [2]
  Effect on Nod-induced apoptosis / Nod transport, OATP1B3-transfected HEK293T cells: abolished
  IC50: 12.6 µM
  Ki: 3.38 µM
OATP1B3 [3]
  Ki: 75 ± 22 µM
Primary rat hepatocytes [4]
  Effect on Nod-induced hepatocyte apoptosis (Fig. 1A): inhibited completely apoptotic morphology
  Effect on Nod-induced hepatocyte apoptosis (Fig. 2A): clear inhibition
Primary rat hepatocytes [5]
  Effect on [3H]-Nod accumulation in hepatocytes: almost completely inhibited
Primary rat hepatocytes [6]
  Effect on [14C]-glycocholic acid accumulation in hepatocytes: almost completely inhibited
OATP1B1 [7]
  Ki: 46 ± 21 µM

## O=C1OC2(c3ccc(O)cc3Oc3cc(O)ccc32)c2ccccc21 [fluorescein, sodium fluorescein]
OATP1B3 [8]
  Km: 285 ± 134 µM

## Nostocyclopeptide-M1
OATP1B1 [9]
  Potency as OATP1B1 inhibitor compared with the cAMP analogs: more potent inhibitor
OATP1B3 [10]
  Potency as OATP1B3 inhibitor compared with the cAMP analogs: more potent inhibitor

B1: OATP1B1 (Homo sapiens) (protein)
chain: MDQNQHLNKTAEAQPSENKKTRYCNGLKMFLAALSLSFIAKTLGAIIMKSSIIHIERRFEISSSLVGFIDGSFEIGNLLVIVFVSYFGSKLHRPKLIGIGCFIMGIGGVLTALPHFFMGYYRYSKETNINSSENSTSTLSTCLINQILSLNRASPEIVGKGCLKESGSYMWIYVFMGNMLRGIGETPIVPLGLSYIDDFAKEGHSSLYLGILNAIAMIGPIIGFTLGSLFSKMYVDIGYVDLSTIRITPTDSRWVGAWWLNFLVSGLFSIISSIPFFFLPQTPNKPQKERKASLSLHVLETNDEKDQTANLTNQGKNITKNVTGFFQSFKSILTNPLYVMFVLLTLLQVSSYIGAFTYVFKYVEQQYGQPSSKANILLGVITIPIFASGMFLGGYIIKKFKLNTVGIAKFSCFTAVMSLSFYLLYFFILCENKSVAGLTMTYDGNNPVTSHRDVPLSYCNSDCNCDESQWEPVCGNNGITYISPCLAGCKSSSGNKKPIVFYNCSCLEVTGLQNRNYSAHLGECPRDDACTRKFYFFVAIQVLNLFFSALGGTSHVMLIVKIVQPELKSLALGFHSMVIRALGGILAPIYFGALIDTTCIKWSTNNCGTRGSCRTYNSTSFSRVYLGLSSMLRVSSLVLYIILIYAMKKKYQEKDINASENGSVMDEANLESLNKNKHFVPSAGADSETHC
[11]
  Km: 402 ± 140 µM
